This note sets out measurements from PMC12388523, “Flavonoids and Sesquiterpene Lactones from Lychnophora ericoides (Arnica-Do-Cerrado) and Their In Vitro Effects on Multiple Myeloma and Acute Myeloid Leukemia” (Metabolites, 2025).

Common to all, as to type: cell-based
Test [1] has as its system KMS-12-PE cells. As to the kind of experiment: Proliferation, [3H]-thymidine uptake, KMS-12-PE. The following applies: KMS-12 PE, 72 h, relative to control. As for the experimental part: (§1) Acute myeloid leukemia cell line HL-60 and multiple myeloma cell lines AMO-1 and KMS-12-PE were obtained from the German Collection of Microorganisms and Cell Cultures (DSMZ), Braunschweig, Germany, and non-tumorigenic stromal cell line HS-5 was acquired from the American Type Culture Collection (ATCC, Manassas, VA, USA). All cell lines were cultured in RPMI 1640 medium without phenol red (Pan Biotech, Aidenbach, Germany), supplemented with 2 mM glutamine, 100 U/mL penicillin, 100 µg/mL streptomycin (Sigma-Aldrich, St. Louis, MO, USA), and 10% fetal bovine serum (FBS Maximus, Catus Biotech GmbH, Tutzing, Germany) at 37 °C in a humidified atmosphere of 5% CO2/95% air. Cells were fed twice weekly. Logarithmically growing cells were resuspended at 1 × 10^5 cells/mL, plated in triplicate in round-bottom 96-well plates (100 µL per well; Falcon, Becton Dickinson, Franklin Lakes, NJ, USA), and incubated at 37 °C in 5% CO2/95% air for 2 h. Subsequently, the compounds were adjusted in the cell culture medium to reach the final concentrations in a total volume of 150 µL and incubated for an additional 72 h. Cell proliferation was assessed by [^3H]-thymidine uptake. Each well was exposed to 2 µCi [^3H]-thymidine (Hartmann Analytic, Braunschweig, Germany) during the final 12–16 h of incubation. Cells were harvested using a semi-automated device, and [^3H]-thymidine incorporation (expressed in counts per minute, cpm) was measured with a scintillation counter (MicroBeta TriLux, PerkinElmer, Waltham, MA, USA). Metabolic activity was assessed by resazurin staining. Resazurin (Carl Roth, Karlsruhe, Germany) was dissolved in distilled water at a concentration of 0.1 mg/mL, and 15 µL of this solution was added to each well, followed by a 2 h incubation at 37 °C. Relative fluorescence units (RFUs) were measured using a Synergy H1 plate reader equipped with a 560 nm excitation/590 nm emission filter set (BioTek; Agilent, Santa Clara, CA, USA). Proliferation and metabolic activity in the absence of compounds were defined as 100% (control), and the values for compound-treated samples were expressed as percentages relative to the control. Selectivity indices were calculated by dividing the IC50 value of each compound against HS-5 cells through the IC50 values against the investigated cell lines.
(§2) The Wilcoxon Rank Sum Test was used to analyze proliferation and metabolic activity in the absence and presence of varying compound concentrations (NCSS 2007 software, version 07.1.2, Kaysville, UT, USA). A p-value < 0.05 was considered statistically significant. IC50 values were calculated using GraphPad Prism 10.1.2. This software reports 95% confidence intervals instead of standard errors. […] Nonetheless, the figures clearly illustrate the IC50 values due to the narrow concentration range tested.

For test [2], the system named is HL-60 cells. As to the kind of experiment: Proliferation, [3H]-thymidine uptake, HL-60. Particulars: 72 h, relative to control. As for the experimental part: as §1, §2
Test [3] has as its system AMO-1 cells. As to the kind of experiment: Metabolic activity, resazurin staining, AMO-1. The following applies: for Metabolic activity, mean percentage ± SE: 72 h, relative to control. As for the experimental part: as §1, §2
(§3) Proliferation inhibition often leads to cell death. Therefore, the cytotoxic activity of the compounds was further evaluated using a modified 3-(4,5-dimethylthiazol-2-yl)-2,5-diphenyltetrazolium bromide (MTT) assay, the resazurin (Alamar Blue) assay. Metabolically active cells reduce the non-fluorescent dye resazurin to the fluorescent dye resorufin via mitochondrial reductase activity, which correlates with cell viability. In the first step the metabolic activity of the four isolated flavonoids was investigated, showing a dose-dependent reduction, but to a much lower extent than in the proliferation assays (Table A2). In fact, only 7,3′,4′-trimethoxymyricetin (2) inhibited the metabolic activity of all four cell lines by more than 50% at a concentration of 100 µM.

Test [4] concerns AMO-1 cells. As to the kind of experiment: Proliferation, [3H]-thymidine uptake, AMO-1. Particulars: 72 h, relative to control. As for the experimental part:
as §1, §2

In test [5] the test system is KMS-12-PE cells. As to the kind of experiment: Metabolic activity, resazurin staining, KMS-12-PE. Particulars: KMS-12 PE; for Metabolic activity, mean percentage ± SE: 72 h, relative to control. As for the experimental part:
as §1, §2, §3
A general note: The colour change of resazurin is a common sign of viable cells or microbes.

Test [6] concerns HL-60 cells. As to the kind of experiment: Metabolic activity, resazurin staining, HL-60. The following applies: for Metabolic activity, mean percentage ± SE: 72 h, relative to control. As for the experimental part: as §1, §2, §3
Test [7] has as its system MOLM-13 cells. As to the kind of experiment: Metabolic activity, resazurin staining, MOLM-13. The following applies: for Metabolic activity, mean percentage ± SE: 72 h, relative to control. As for the experimental part: [The source words this procedure for another cell line and reports this cell line under the same test.] as §1, §2, §3
In test [8] the test system is MOLM-13 cells. As to the kind of experiment: Proliferation, [3H]-thymidine uptake, MOLM-13. The following applies: 72 h, relative to control. As for the experimental part:
[The source words this procedure for another cell line and reports this cell line under the same test.] as §1, §2

Consider `COc1ccc(-c2cc(=O)c3c(O)cc(O)cc3o2)cc1O` [Compound 3, diosmetin], for which the “mean percentage of proliferation ± SE” value in test [1] (25 µM) is on record as 74.5 ± 6.9 %; in test [1] (50 µM) it was 38.2 ± 4.1 %; in test [1] (100 µM) it was 16.4 ± 2.4 %; in test [2] (HL-60, 25 µM), 71.4 ± 1.5 %; in test [2] (HL-60, 50 µM), 59.9 ± 3.6 %; in test [2] (HL-60, 100 µM), 19.7 ± 3.7 %. Besides, the “mean percentage of proliferation ± SE” value in test [4] (AMO-1, 25 µM) is on record as 65.9 ± 9.4 %; in test [4] (AMO-1, 50 µM), 42.0 ± 5.0 %; in test [4] (AMO-1, 100 µM), 9.0 ± 0.8 %; in test [8] (MOLM-13, 25 µM), 36.5 ± 2.9 %; in test [8] (MOLM-13, 50 µM), 11.7 ± 1.6 %; in test [8] (MOLM-13, 100 µM), 1.1 ± 0.4 %. Also, the “Metabolic activity, mean percentage ± SE” value came to 95.4 ± 2.4 % in test [3] (AMO-1, 25 µM); 76.8 ± 3.7 % in test [3] (AMO-1, 50 µM); 54.5 ± 5.5 % in test [3] (AMO-1, 100 µM); 93.7 ± 4.9% in test [5] (25 µM); 81.3 ± 3.2 % in test [5] (50 µM); 57.2 ± 4.7 % in test [5] (100 µM). Also, the “Metabolic activity, mean percentage ± SE” value was determined as 93.2 ± 3.1 % in test [6] (HL-60, 25 µM); 84.5 ± 2.2 % in test [6] (HL-60, 50 µM); 56.7 ± 3.5 % in test [6] (HL-60, 100 µM); 62.5 ± 10.1 % in test [7] (MOLM-13, 25 µM); 51.2 ± 7.2 % in test [7] (MOLM-13, 50 µM); 41.2 ± 5.0 % in test [7] (MOLM-13, 100 µM). Further, the “inhibition of metabolic activity” value in test [7] (MOLM-13, 100 µM) is “induced antimetabolic activity”.
Consider `COc1cc(O)c2c(=O)c(OC)c(-c3ccc(OC)c(OC)c3)oc2c1` [Compound 1, retusin], for which the “mean percentage of proliferation ± SE” value in test [1] (50 µM) came to 85.2 ± 1.8 %; in test [1] (100 µM) it was 73.0 ± 1.9 %; in test [2] (HL-60, 50 µM), 76.0 ± 3.0 %; in test [2] (HL-60, 100 µM), 65.6 ± 3.1 %; in test [4] (AMO-1, 50 µM) it was 73.5 ± 7.5 %; in test [4] (AMO-1, 100 µM), 66.9 ± 7.8 %. Also, the “mean percentage of proliferation ± SE” value is 76.9 ± 4.7 % in test [8] (MOLM-13, 50 µM) and 57.8 ± 6.8 % in test [8] (MOLM-13, 100 µM). Further, the “Metabolic activity, mean percentage ± SE” value came out at 91.4 ± 8.9 % in test [3] (AMO-1, 50 µM); 81.0 ± 4.2 % in test [3] (AMO-1, 100 µM); 100.9 ± 4.1% in test [5] (50 µM); 95.1 ± 4.5% in test [5] (100 µM); 93.0 ± 4.4% in test [6] (HL-60, 50 µM); 85.9 ± 1.8% in test [6] (HL-60, 100 µM). Also, the “Metabolic activity, mean percentage ± SE” value in test [7] (MOLM-13, 50 µM) was determined as 88.5 ± 3.8 %; in test [7] (MOLM-13, 100 µM), 80.5 ± 2.6 %.
In the case of `COc1cc(O)c2c(=O)c(O)c(-c3cc(O)c(OC)c(OC)c3)oc2c1` [Compound 2, 7,3′,4′-trimetoxymyricetin], the “mean percentage of proliferation ± SE” value in test [1] (25 µM) came to 64.5 ± 2.9 %; in test [1] (50 µM), 16.1 ± 0.9 %; in test [1] (100 µM), 2.6 ± 0.4 %; in test [2] (HL-60, 25 µM) it was 69.8 ± 2.5 %; in test [2] (HL-60, 50 µM) it was 36.7 ± 2.5 %; in test [2] (HL-60, 100 µM) it was 2.5 ± 0.5 %. Further, the “mean percentage of proliferation ± SE” value in test [4] (AMO-1, 25 µM) is 69.2 ± 5.3 %; in test [4] (AMO-1, 50 µM), 27.0 ± 4.0 %; in test [4] (AMO-1, 100 µM) it was 4.8 ± 1.0 %; in test [8] (MOLM-13, 25 µM), 77.8 ± 9.6%; in test [8] (MOLM-13, 50 µM), 35.4 ± 4.2 %; in test [8] (MOLM-13, 100 µM), 3.8 ± 1.0 %. For the same compound, the “Metabolic activity, mean percentage ± SE” value in test [3] (AMO-1, 25 µM) is 81.3 ± 6.3 %; in test [3] (AMO-1, 50 µM), 68.9 ± 4.1 %; in test [3] (AMO-1, 100 µM), 41.8 ± 6.4 %; in test [5] (25 µM) it was 87.9 ± 2.6 %; in test [5] (50 µM), 62.7 ± 2.6 %; in test [5] (100 µM) it was 44.5 ± 4.0 %. Besides, the “Metabolic activity, mean percentage ± SE” value in test [6] (HL-60, 25 µM) was determined as 93.2 ± 7.8%; in test [6] (HL-60, 50 µM), 79.6 ± 7.0 %; in test [6] (HL-60, 100 µM) it was 32.1 ± 2.8 %; in test [7] (MOLM-13, 25 µM), 77.8 ± 2.1 %; in test [7] (MOLM-13, 50 µM), 65.4 ± 3.6 %; in test [7] (MOLM-13, 100 µM), 48.9 ± 5.5 %. Further, the inhibition at 100 µM is greater than 50% in test [3] (Homo sapiens, AMO1, AMO-1, 100 µM); greater than 50% in test [5] (Homo sapiens, 100 µM); greater than 50% in test [6] (Homo sapiens, HL-60, 100 µM); greater than 50% in test [7] (Homo sapiens, MOLM-13, 100 µM).

In general, inhibition refers to the change of the read-out against control, counted positive when it falls.
